Measurements published in ChEMBL document CHEMBL5729330, “Galactoside inhibitor of galectins” (2022).
pKd: −log10 of the molar value.

The molecules below were run against Galectin-3 (Homo sapiens, UniProt P17931) (assay: Fluorescence Anisotropy Assay: The affinity of Example 1-71 for galectins were determined by a fluorescence anisotropy assay where the compound was used as an inhibitor of the interaction between galectin and a fluorescein tagged saccharide probe).
Sequence of Galectin-3 (P17931 whole entry): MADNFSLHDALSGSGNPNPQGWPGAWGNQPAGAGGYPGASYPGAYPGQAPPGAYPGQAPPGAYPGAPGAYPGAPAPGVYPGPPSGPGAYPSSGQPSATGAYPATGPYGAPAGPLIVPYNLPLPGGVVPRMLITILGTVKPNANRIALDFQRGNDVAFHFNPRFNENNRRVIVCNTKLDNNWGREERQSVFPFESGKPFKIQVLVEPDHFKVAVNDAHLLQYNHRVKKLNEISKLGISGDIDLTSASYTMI

Structure (SMILES)	pKd
COC1[C@@H](Sc2cc(Cl)cnc2C(=O)N2CCC2)OC(CO)[C@H](O)[C@@H]1n1cc(-c2ccc(Cl)c(F)c2)nn1 (some centres undefined)	7.68
CCOC1[C@@H](Sc2cc(Cl)cnc2C(=O)N2CCC2)OC(CO)[C@H](O)[C@@H]1n1cc(-c2cc(F)c(Cl)c(F)c2)nn1 (some centres undefined)	7.96
COC1[C@@H](Sc2cc(Cl)cnc2C(=O)N2CCC2)OC(CO)[C@H](O)[C@@H]1n1cc(-c2cc(F)c(Cl)c(F)c2)nn1 (some centres undefined)	7.80
CCOC1[C@@H](Sc2cc(Cl)cnc2C(=O)N2CCC2)OC(CO)[C@H](O)[C@@H]1n1cc(-c2cc(F)c(F)c(F)c2)nn1 (some centres undefined)	7.68
CCOC1[C@@H](Sc2cc(Cl)cnc2C(=O)N2CCC2)OC(CO)[C@H](O)[C@@H]1n1cc(-c2ccc(Cl)c(F)c2)nn1 (some centres undefined)	7.77
COC1[C@@H](Sc2cc(Br)cnc2C(=O)N2CCC2)OC(CO)[C@H](O)[C@@H]1n1cc(-c2cc(F)c(F)c(F)c2)nn1 (some centres undefined)	8.22
COC1[C@@H](Sc2cc(Cl)cnc2C(=O)N2CCC2)OC(CO)[C@H](O)[C@@H]1n1cc(-c2cc(F)c(F)c(F)c2)nn1 (some centres undefined)	8.00
CCOC1[C@@H](Sc2cc(Br)cnc2C(=O)N2CCC2)OC(CO)[C@H](O)[C@@H]1n1cc(-c2ccc(Cl)c(F)c2)nn1 (some centres undefined)	8.10
COC1[C@@H](Sc2cc(Br)cnc2C(=O)N2CCC2)OC(CO)[C@H](O)[C@@H]1n1cc(-c2ccc(Cl)c(F)c2)nn1 (some centres undefined)	8.15
